In brackets after ≈: the same amount, converted by molar mass.
Assays:
Assay type in all cases: cell-based
[1] = biological target: mouse fibroblast cell line transfected with the HER-2 oncogene (3T3/neu) (UniProt P04626, cells depend on it, species not given); experiment: Cell proliferation assay (SRB), 3T3/neu; settings: for GI50: EGFR −, Her-2 +++, 2 days, SRB, read-out: CELL IC50 3T3/NEU (converted)
A431 cells = experiment: Cell proliferation assay (SRB), A431; settings: for IC50: Homo sapiens, A-431, 48 h, EGFR +++, Her-2 +, 2 days, SRB, read-out: CELL IC50 A431
SK-Br-3 cells = experiment: Cell proliferation assay (SRB), SK-Br-3; settings: for IC50: Homo sapiens, SK-BR-3, 48 h, EGFR −, Her-2 +++, 2 days, SRB, read-out: CELL IC50 SKBr3
MDA-MB-435 cells = experiment: Cell proliferation assay (SRB), MDA-MB-435
SW620 cells = experiment: Cell proliferation assay (SRB), SW620; settings: for IC50: Homo sapiens, SW-620, 48 h, EGFR −, Her-2 −, 2 days, SRB, read-out: CELL IC50 SW620

GI50 [1] | IC50 (SW620 cells) | Compound | also measured
 |  | 4-{3-chloro-4-[(4-oxo-3,4-dihydro-2-quinazolinyl)sulfanyl]anilino}-7-methoxy-6-hydro-2-quinazolinyl)sulfanyl]anilino}-7-methoxy-6-nitro-3-quinolinecarbonitrile [Example 44] | CELL IC50 3T3/NEU ([1]; mouse fibroblast cell line transfected with the her-2 oncogene (3t3/neu)): 4.54 µg/mL; CELL IC50 A431 (A431 cells): 2.28 µg/mL; CELL IC50 SKBr3 (SK-Br-3 cells): 4.54 µg/mL; CELL IC50 MDA-MB-435 (MDA-MB-435 cells): >5 µg/mL; CELL IC50 SW620 (SW620 cells): 1.96 µg/mL
958 nM |  | CCOc1cc2ncc(C#N)c(Nc3ccc4c(c3)OCCO4)c2cc1OCC [Example 23, 4-(2,3-Dihydro-benzo[1,4]dioxin-6-ylamino)-6,7-diethoxy-quinoline-3-carbonitrile] | 
> 11500 nM |  | COCCOc1cc2ncc(C#N)c(Nc3ccc4cn[nH]c4c3)c2cc1OCCOC [Example 24, 4-(1H-Indazol-6-ylamino)-6,7-bis-(2-methoxy-ethoxy)-quinoline-3-carbonitrile] | 
> 12000 nM |  | CCOc1cc2ncc(C#N)c(Nc3ccc4c(=O)[nH][nH]c(=O)c4c3)c2cc1OCC [Example 25, 4-(1,4-Dioxo-1,2,3,4-tetrahydro-phthalazin-6-ylamino)-6,7-diethoxy-quinoline-3-carbonitrile] | 
53 nM | 0.294 µg/mL (≈ 0.787 µM) | CCOc1cc2ncc(C#N)c(Nc3ccc4c(c3)CCC4)c2cc1OCC [Example 26, 6,7-Diethoxy-4-(indan-5-ylamino)-quinoline-3-carbonitrile] | 
11000 nM |  | CCOc1cc2ncc(C#N)c(Nc3ccc4[nH]c(=O)oc(=O)c4c3)c2cc1OCC [Example 27, 4-(2,4-Dioxo-1,4-dihydro-2H-benzo[d][1,3]oxazin-6-ylamino)-6,7-diethoxy-quinoline-3-carbonitrile] | 
80.3 nM | 0.0244 µg/mL (≈ 0.063 µM) | CCOc1cc2ncc(C#N)c(Nc3ccc4c(c3)CCC4=O)c2cc1OCC [Example 28, 6,7-Diethoxy-4-(1-oxo-indan-5-ylamino)-quinoline-3-carbonitrile] | IC50 (A431 cells): 0.0181 µg/mL (≈ 0.0467 µM)
8480 nM |  | CCOc1cc2ncc(C#N)c(Nc3ccc4c(c3)C(=O)OC4)c2cc1OCC [Example 29, 6,7-Diethoxy-4-(3-oxo-1,3-dihydro-isobenzofuran-5-ylamino)-quinoline-3-carbonitrile] | 
74.3 nM |  | CCOc1cc2ncc(C#N)c(Nc3ccc4cn[nH]c4c3)c2cc1OC [Example 31, 7-Ethoxy-4-(1H-indazol-6-ylamino)-6-methoxy-quinoline-3-carbonitrile] | 
13400 nM |  | CCOc1cc2c(Nc3ccc4cn[nH]c4c3)c(C#N)cnc2cc1OC [Example 32, 6-Ethoxy-4-(1H-indazol-6-ylamino)-7-methoxy-quinoline-3-carbonitrile] | 
> 11200 nM |  | CCOc1cc2ncc(C#N)c(Nc3ccc4c(c3)C(=O)NCC(=O)N4C)c2cc1OCC [Example 33, 6,7-Diethoxy-4-(1-methyl-2,5-dioxo-2,3,4,5-tetrahydro-1H-benzo[e][1,4]diazepin-7-ylamino)-quinoline-3-carbonitrile] | 
347 nM | 2.18 µg/mL (≈ 3.86 µM) | COc1cc2c(Nc3ccc(Sc4nccn4C)c(Cl)c3)c(C#N)cnc2cc1OCCCN1CCOCC1 [Example 51, 4-{3-chloro-4-[(1-methyl-1H-imidazol-2-yl)sulfanyl]anilino}-6-methoxy-7-[3-(4-morpholinyl)propoxy]-3-quinolinecarbonitrile] | IC50 (A431 cells): 0.775 µg/mL (≈ 1.37 µM); IC50 (SK-Br-3 cells): 0.32 µg/mL (≈ 0.566 µM)
1780 nM | 3.69 µg/mL (≈ 6.75 µM) | COc1cc2c(Nc3ccc(Sc4nccn4C)c(Cl)c3)c(C#N)cnc2cc1OCCCn1ccnn1 [Example 73, 4-{3-chloro-4-[(1-methyl-1H-imidazol-2-yl)sulfanyl]anilino}-6-methoxy-7-[3-(1H-1,2,3-triazol-1-yl)propoxy]-3-quinolinecarbonitrile] | IC50 (A431 cells): 1.83 µg/mL (≈ 3.35 µM); IC50 (SK-Br-3 cells): 0.104 µg/mL (≈ 0.19 µM)
